Experimental data reported in patent US20250339812A1, “ELECTROCHEMICAL DIRECT AIR CAPTURE OF CARBON DIOXIDE USING REVERSIBLE REDOX-ACTIVE MATERIAL” (Massachusetts Institute of Technology, priority 2022, published 2025).
Read-outs that look alike come from different tables or passages of the source.

Assays:
[1] = for peak intensity degradation: nitrogen control
Source text: FIG. 5C is a UV-vis spectra for the oxygen sensitivity test.
FIG. 5D is a UV-vis spectra for the control experiment under nitrogen.
FIG. 5E is a UV-vis spectra for the stability test under carbon dioxide.
FIG. 5F is a UV-vis spectra for the stability test under air.
The factors contributing to the 455 nm peak degradation were examined, including decomposition, reoxidation, precipitation, and polymerization.
A third set of UV-vis absorption measurements […], this time on solutions contacted with carbon dioxide, was carried out. […] The final set of UV-vis absorption experiments in FIG. 5F was carried out using solutions bubbled with ambient air.

[2] = Cyclic voltammetry redox durability of NR (100 cycles); settings: after 100 cyclic voltammetry cycles
Source text: The electrochemistry of the NR aqueous solution was examined by CV at various pH levels between 6 and 12 (FIG. 2A).

[3] = pKa of the NR/NRH equilibrium; format: physicochemical
Source text: After basification, a carbon dioxide rich gas stream was introduced to saturate and consequently acidify the solution.

Compound	decomposition, reoxidation or polymerization products by NMR studies ([1]; NRH2 solutions)	sensitivity to oxygen ([1]; UV-vis absorption spectroscopy, 50 mM NRH2 in 1 M NA and 0.5 M KCl in water)	intensities of the 455 nm peak ([1]; bubbled with ambient air, 30 min and 2 h contact)	degradation of peak intensity at 455 nm ([1]; contacted with carbon dioxide, after a day)	peak intensity at 455 nm ([1]; contacting pure oxygen, 2 h)	peak intensity degradation ([1]; after 24 h)	peak intensity degradation ([1]; after a week)	peak intensity of NRH2 (455 nm) lowered by ([1]; oxygen atmosphere, a day)	peak intensity of NRH2 (455 nm) lowered by ([1]; sealed under oxygen atmosphere after 24 h bubbling, a week)	decay in the peak current [2]	pKa [3]
Cc1cc2c(cc1N)Nc1cc(N(C)C)ccc1N2 [NRH2, leuco-neutral red]	No major decomposition, reoxidation, or polymerization products	insensitive to oxygen	the same	no significant degradation	maintained	33%	53%	42%	52%	–	–
Cc1cc2nc3ccc(N(C)C)cc3nc2cc1N.Cl [NR, neutral red]	–	–	–	–	–	–	–	–	–	no significant decay	6.8
